For 31 molecules, IC50 results are on record in patent US20100317850A1 (priority 2008, published 2010).

Molecules are shown by their SMILES.

This assay has as its system Aβ42 production. Nature of the assay: Quantification of Aβ peptide in culture of neurons from rat fetus brain (Aβ ELISA). It is filed as cell-based. As to conditions: Neuron, 72 h; rat primary neuronal culture (cerebral cortex, embryonic day 18 Wistar rats); medium collected three days after addition of the compound; Aβx-42 ELISA; read-out: Aβ42 production reducing effect IC50. In short, it runs like this: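 Primary cortical neurons from embryonic day 18 Wistar rats were cultured 4 days, then exposed to compound in Neurobasal/B27 without 2-ME, final DMSO ≤1%. After three days, medium was collected and Aβx-42 measured undiluted by sandwich ELISA.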
What is called IC50 is the point on the concentration scale where inhibition reaches its midpoint. With `NC1=N[C@@]2(c3cc(NC(=O)c4ncc(F)cc4F)ccc3F)COC[C@H]2CS1` (single isomer, unassigned) [Example 188, N-[3-((4aS*,7aS*)-2-amino-4a,5-dihydro-4H-furo[3,4-d][1,3]thiazin-7a-yl)-4-fluorophenyl]-3,5-difluoropyridine-2-carboxamide], the IC50 turned out to be 22 nM.

For `NC1=N[C@@]2(c3cc(NC(=O)c4ncc(Cl)cc4Cl)ccc3F)COC[C@H]2CS1` (single isomer, unassigned) [Example 189, N-[3-((4aS*,7aS*)-2-amino-4a,5-dihydro-4H-furo[3,4-d][1,3]thiazin-7a-yl)-4-fluorophenyl]-3,5-dichloropyridine-2-carboxamide], the IC50 stood at 8 nM.

For the molecule `NC1=N[C@@]2(c3cc(NC(=O)c4ccc(C(F)F)cn4)ccc3F)COC[C@H]2CS1` (single isomer, unassigned) [Example 190, N-[3-((4aS*,7aS*)-2-amino-4a,5-dihydro-4H-furo[3,4-d][1,3]thiazin-7a-yl)-4-fluorophenyl]-5-difluoromethylpyridine-2-carboxamide], the IC50 was 12 nM.

As for `NC1=N[C@@]2(c3cc(NC(=O)c4cnc(C(F)F)cn4)ccc3F)CCC[C@H]2CS1` (single isomer, unassigned) [Example 191, N-[3-((4aR*,7aS*)-2-amino-4a,5,6,7-tetrahydro-4H-cyclopenta[d][1,3]thiazin-7a-yl)-4-fluorophenyl]-5-difluoromethylpyrazine-2-carboxamide], the IC50 is 9 nM.

Consider `NC1=N[C@@]2(c3cc(NC(=O)c4ccc(Br)cn4)ccc3F)CCCCC[C@H]2CS1` (single isomer, unassigned) [Example 249, N-[3-((4aR*,9aS*)-2-amino-4a,5,6,7,8,9-hexahydro-4H-cyclohepta[d][1,3]thiazin-9a-yl)-4-fluroophenyl]-5-bromopyridine-2-carboxamide], for which the IC50 was found to be 18 nM.

Consider `NC1=N[C@@]2(c3cc(NC(=O)c4ccc(C(F)(F)F)cn4)ccc3F)CCCCC[C@H]2CS1` (single isomer, unassigned) [Example 250, N-[3-((4aR*,9aS*)-2-amino-4a,5,6,7,8,9-hexahydro-4H-cyclohepta[d][1,3]thiazin-9a-yl)-4-fluorophenyl]-5-trifluoromethylpyridine-2-carboxamide], for which the IC50 is 27 nM.

On to `NC1=N[C@@]2(c3cc(NC(=O)c4ccc(F)cn4)ccc3F)CCCC[C@H]2CS1` (single isomer, unassigned) [Example 256, N-[3-((4aR*,8aS*)-2-amino-4,4a,5,6,7,8-hexahydrobenzo[d][1,3]thiazin-8a-yl)-4-fluorophenyl]-5-fluoropyridine-2-carboxamide], for which the IC50 was 38 nM.

Consider `NC1=N[C@@]2(c3cc(NC(=O)c4ncc(Cl)cc4Cl)ccc3F)CCCC[C@H]2CS1` (single isomer, unassigned) [Example 257, N-[3-((4aR*,8aS*)-2-amino-4,4a,5,6,7,8-hexahydrobenzo[d][1,3]thiazin-8a-yl)-4-fluorophenyl]-3,5-dichloropyridine-2-carboxamide], for which the IC50 is 17 nM.

For `COC[C@H]1C[C@]2(c3cc(NC(=O)c4cnc(OCF)cn4)ccc3F)N=C(N)SC[C@@H]2CO1` [Example 38, N-[3-((4aS,7R,8aS)-2-amino-7-methoxymethyl-4a,5,7,8-tetrahydro-4H-6-oxa-3-thia-1-azanaphthalen-8a-yl)-4-fluorophenyl]-5-fluoromethoxypyrazine-2-carboxamide], the IC50 came out at 6 nM.

Regarding `COC[C@H]1C[C@]2(c3cc(NC(=O)c4ccc(C#N)cn4)ccc3F)N=C(N)SC[C@@H]2CO1` [Example 39, N-[3-((4aS,7R,8aS)-2-amino-7-methoxymethyl-4a,5,7,8-tetrahydro-4H-6-oxa-3-thia-1-azanaphthalen-8a-yl)-4-fluorophenyl]-5-cyanopyridine-2-carboxamide], the IC50 worked out at 7 nM.

On to `COC[C@H]1C[C@]2(c3cc(NC(=O)c4cnc(C(F)F)cn4)ccc3F)N=C(N)SC[C@@H]2CO1` [Example 40, N-[3-((4aS,7R,8aS)-2-amino-7-methoxymethyl-4a,5,7,8-tetrahydro-4H-6-oxa-3-thia-1-azanaphthalen-8a-yl)-4-fluorophenyl]-5-difluoromethylpyrazine-2-carboxamide], for which the 50% inhibitory concentration (IC50) came out at 26 nM.

Take `NC1=N[C@@]2(c3cc(NC(=O)c4cnc(OCF)cn4)ccc3F)C[C@H](CF)OC[C@H]2CS1` [Example 41, N-[3-((4aS,7R,8aS)-2-amino-7-fluoromethyl-4a,5,7,8-tetrahydro-4H-6-oxa-3-thia-1-azanaphthalen-8a-yl)-4-fluorophenyl]-5-fluoromethoxypyrazine-2-carboxamide]: the half-maximal inhibitory concentration (IC50) turned out to be 6 nM.

With `N#Cc1ccc(C(=O)Nc2ccc(F)c([C@]34C[C@H](CF)OC[C@H]3CSC(N)=N4)c2)nc1` [Example 42, N-[3-((4aS,7R,8aS)-2-amino-7-fluoromethyl-4a,5,7,8-tetrahydro-4H-6-oxa-3-thia-1-azanaphthalen-8a-yl)-4-fluorophenyl]-5-cyanopyridine-2-carboxamide], the concentration for half-maximal inhibition (IC50) turned out to be 4 nM.

`NC1=N[C@@]2(c3cc(NC(=O)c4cnc(C(F)F)cn4)ccc3F)C[C@H](CF)OC[C@H]2CS1` [Example 43, N-[3-((4aS,7R,8aS)-2-amino-7-fluoromethyl-4a,5,7,8-tetrahydro-4H-6-oxa-3-thia-1-azanaphthalen-8a-yl)-4-fluorophenyl]-5-difluoromethylpyrazine-2-carboxamide]: the IC50 was 19 nM.

Take `NC1=N[C@@]2(c3cccc(-c4cccnc4F)c3)CN(C(=O)CC3CC3)C[C@H]2CS1` [Example 48]: the IC50 stood at 575 nM.

Take `COC[C@H]1OC[C@]2(c3cc(NC(=O)c4ccc(C#N)cn4)ccc3F)N=C(N)SC[C@H]12` [Example 66, N-[3-((4aS,5S,7aS)-2-amino-5-methoxymethyl-4a, 5-dihydro-4H-furo[3,4-d][1,3]thiazin-7a-yl)-4-fluorophenyl]-5-cyanopyridine-2-carboxamide]: the IC50 is 1.3 nM.

In the case of `COC[C@H]1OC[C@]2(c3cc(NC(=O)c4cnc(OC(F)F)cn4)ccc3F)N=C(N)SC[C@H]12` [Example 67, N-[3-((4aS,5S,7aS)-2-amino-5-methoxymethyl-4a,5-dihydro-4H-furo[3,4-d][1,3]thiazin-7a-yl)-4-fluorophenyl]-5-difluoromethoxy-pyrazine-2-carboxamide], the half-maximal inhibitory concentration (IC50) was 1.4 nM.

Regarding `COC[C@H]1OC[C@]2(c3cc(NC(=O)c4cnc(C(F)F)cn4)ccc3F)N=C(N)SC[C@H]12` [Example 68, N-[3-((4aS,5S,7aS)-2-amino-5-methoxymethyl-4a,5-dihydro-4H-furo[3,4-d][1,3]thiazin-7a-yl)-4-fluorophenyl]-5-difluoromethylpyrazine-2-carboxamide], the 50% inhibitory concentration (IC50) stood at 6 nM.

As to `COC[C@H]1OC[C@]2(c3cc(NC(=O)c4cnc(OCF)cn4)ccc3F)N=C(N)SC[C@H]12` [Example 69, N-[3-((4aS,5S,7aS)-2-amino-5-methoxymethyl-4a,5-dihydro-4H-furo[3,4-d][1,3]thiazin-7a-yl)-4-fluorophenyl]-5-fluoromethoxypyrazine-2-carboxamide], the IC50 stood at 2 nM.

For the molecule `NC1=N[C@@]2(c3cc(NC(=O)c4ccc(C(F)(F)F)cn4)ccc3F)CO[C@H](CF)[C@H]2CS1` [Example 70, N-[3-((4aS,5S,7aS)-2-amino-5-fluoromethyl-4a,5-dihydro-4H-furo[3,4-d][1,3]thiazin-7a-yl)-4-fluorophenyl]-5-trifluoromethylpyridine-2-carboxamide], the IC50 was determined as 2 nM.

As for `NC1=N[C@@]2(c3cc(NC(=O)c4ccc(Cl)cn4)ccc3F)CO[C@H](CF)[C@H]2CS1` [Example 71, N-[3-((4aS,5S,7aS)-2-amino-5-fluoromethyl-4a,5-dihydro-4H-furo[3,4-d][1,3]thiazin-7a-yl)-4-fluorophenyl]-5-chloropyridine-2-carboxamide], the IC50 worked out at 1 nM.

For the molecule `NC1=N[C@@]2(c3cc(NC(=O)c4ccc(OC(F)F)cn4)ccc3F)CO[C@H](CF)[C@H]2CS1` [Example 72, N-[3-((4aS,5,7aS)-2-amino-5-fluoromethyl-4a,5-dihydro-4H-furo[3,4-d][1,3]thiazin-7a-yl)-4-fluorophenyl]-5-difluoromethoxypyridine-2-carboxamide], the IC50 came to 2 nM.

`NC1=N[C@@]2(c3cc(NC(=O)c4cnc(C(F)F)cn4)ccc3F)CO[C@H](CF)[C@H]2CS1` [Example 73, N-[3-((4aS,5S,7aS)-2-amino-5-fluoromethyl-4a,5-dihydro-4H-furo[3,4-d][1,3]thiazin-7a-yl)-4-fluorophenyl]-5-difluoromethylpyrazine-2-carboxamide]: the concentration for half-maximal inhibition (IC50) came to 7 nM.

`NC1=N[C@@]2(c3cc(NC(=O)c4cnc(OCF)cn4)ccc3F)CO[C@H](CF)[C@H]2CS1` [Example 75, N-[3-((4aS,5,7aS)-2-amino-5-fluoromethyl-4a,5-dihydro-4H-furo[3,4-d][1,3]thiazin-7a-yl)-4-fluorophenyl]-5-fluoromethoxypyrazine-2-carboxamide]: the IC50 was found to be 3 nM.

As to `NC1=N[C@@]2(c3cccc(-c4cccnc4F)c3)CN(C(=O)c3ccccc3)C[C@H]2CS1` [Example 82], the IC50 came out at 425 nM.

As to `NC1=N[C@@]2(c3cccc(-c4cccnc4F)c3)CN(C(=O)C3CC3)C[C@H]2CS1` [Example 84], the half-inhibitory concentration (IC50) was found to be 893 nM.

As for `NC1=N[C@@]2(c3cccc(-c4cccnc4F)c3)CN(c3cnccn3)C[C@H]2CS1` [Example 87], the IC50 was determined as 62 nM.

In the case of `NC1=N[C@@]2(c3cccc(-c4cccnc4F)c3)CN(c3cccc(F)n3)C[C@H]2CS1` [Example 88], the IC50 amounted to 75 nM.

Regarding `Cc1cnc(C(=O)Nc2ccc(F)c([C@]34CCCC[C@H]3CSC(N)=N4)c2)cn1` [Example 117], the IC50 amounted to 158 nM.

Consider `NC1=N[C@@]2(c3cc(NC(=O)c4ncc(Br)cn4)ccc3F)CCCC[C@H]2CS1` [Example 120], for which the IC50 stood at 38 nM.

As for `NC1=N[C@@]2(c3cc(NC(=O)c4ncccn4)ccc3F)CCCC[C@H]2CS1` [Example 121], the IC50 was 263 nM.
